The source of these data is patent publication US8293716B2, “Method of treating cancer by modulation of mortalin” (Ramot At Tel Aviv University Ltd., priority 2005, dated 2012).

Series [1] has as its system mortalin. Description: Mortalin release into supernatants of K562 cells, SDS-PAGE and Western blotting. In kind it is cell-based, human. The settings on record: for mortalin release in response to sublytic dose of pore-former: mellitin 70 micromolar, SLO 900 units per milliliter, 10 minutes 37 degrees, no complement, FIGS. 4c-d; for release of mortalin from complement-treated cells: 30 minutes pretreatment (PMB 100 micrograms per milliliter, PD98059 10 micromolar), then sublytic anti-K562 antibody and NHS, FIGS. 6a-d. The protocol:
(§1) Collection of extracellular protein: Cells were treated with antibodies for 30 minutes at 4 degrees centigrade and then with NHS or HI-NHS (50 percent) for 10 minutes at 37 degrees centigrade. Then, the cells were extensively washed into HBSS and incubated at 37 degrees centigrade. At different times, cells were removed by centrifugation at 250×g and supernatants were collected and kept frozen until analyzed. In some experiments, cells were first metabolically labeled for 2 hours at 37 degrees centigrade with an L-[^35S]methionine, L-[^35S]cysteine mix (Amersham Pharmacia, Uppsala, Sweden) at 200 microcuries per milliliter in RPMI (lacking methionine and cysteine) and 20 millimolar HEPES-pH 7.0. Cytotoxicity assays and collection of extracellular proteins were performed as described above. Radioactivity in the supernatants was quantified in a beta-Scintillation Counter (Tri-Carb, Packard).
Protein analyses: Protein concentration was analyzed with the BCA Protein Assay Kit (Pierce, Rockford, Ill., USA). Samples of 20 micrograms of protein was subjected to SDS-PAGE under reducing conditions (50 millimolar DTT), in a 10 percent acrylamide gel, and stained with Coomassie Blue or silver. Selected protein species were excised from Coomassie Blue-stained gels and analyzed by mass spectrometry (MALDI-MS) at the Maiman Institute for Proteome Research (Tel-Aviv University). Alternatively, the electrophoretically separated proteins were transferred onto a nitrocellulose membrane (Schleicher & Schuell, Dassel, Germany). The membrane was blocked with 5 percent skim milk (Tnuva, Rehovot, Israel) in Tris-buffered saline containing 0.05 percent Tween-20 (Sigma; TBST) for 1 hour at room temperature. The membrane was treated with rabbit anti-mortalin antibodies and then with peroxidase-conjugated goat anti-rabbit IgG. The labeled membrane was developed with an enhanced chemiluminescence reagent (Pierce, Rockford, Ill., USA) and exposed to a SuperRX film (Fuji, Tokyo, Japan).
Background: Immunoblotting shows a protein as a band on a membrane.

For series [2], the system named is K562 cells. The experiment in a line: Release of metabolically-labeled proteins from complement-treated K562 cells. The class given is cell-based, human. The settings on record: pretreatment 30 minutes with 100 micrograms per milliliter PMB or 10 micromolar PD; radioactivity in supernatants; FIG. 6e. The protocol: as §1
Series [3] relates to K562 cells. Description: Complement-induced protection assay. In kind it is cell-based, human. The settings on record: cells pre-treated with inhibitor and sublytic complement, then lytic dose of antibody and complement; FIGS. 6f-g. How it is done:
Cell lysis and induced protection assays: Cytotoxicity assays were performed as previously described (Reiter, Y. and Fishelson, Z. 1992. Mol Immunol 29:771). Briefly, cells were incubated with diluted anti-K562 antiserum for 30 minutes at 4 degrees centigrade and then with complement (NHS, C7- or C8-deficient serum or HI-NHS, 50 percent) for 60 minutes at 37 degrees centigrade. Cell lysis was determined via Trypan blue staining. For the complement-induced protection assays, the cells were first treated with sublytic doses of antibody and NHS, washed and then incubated with lytic doses of antibody and NHS (Reiter, Y. et al., 1992. Eur J Immunol 22:1207). Statistical significance was analyzed by using the two-sided unpaired student's t-test.

For series [4], the system named is mortalin. Description: Mortalin expression level in K562 cells, Western blotting of cell lysates. The class given is cell-based, human. The settings on record: cathepsin L inhibitor 5, 10, 20 or 40 micromolar, 30 minutes 37 degrees; FIG. 8a. The protocol:
(§2) Cells and cell lysates: The human erythroleukemic cell line K562 was cultured in RPMI-1640 medium supplemented with 10 percent (v/v) heat-inactivated fetal bovine serum (Gibco laboratories, Grand Island, NY, USA), 1 percent glutamine, 2 percent pyruvate and antibiotics mixture (Bio-Lab, Jerusalem, Israel), at 37 degrees centigrade in a 5 percent carbon dioxide atmosphere. To prepare cell lysates, 20 million cells were mixed with 1 milliliter lysis buffer composed of 100 millimolar Tris-pH 7.5, 10 millimolar EDTA, protease inhibitor cocktail (Sigma) and 0.7 percent Triton X-100. After 3 cycles of freezing and thawing, the cell lysate was subjected to centrifugation for 15 minutes at 14,000×g, and the supernatant was collected and diluted with 1 milliliter HBSS (Sigma, Rehovot, Israel).
Protein analyses: Protein concentration was analyzed with the BCA Protein Assay Kit (Pierce, Rockford, Ill., USA). Samples of 20 micrograms of protein was subjected to SDS-PAGE under reducing conditions (50 millimolar DTT), in a 10 percent acrylamide gel, and stained with Coomassie Blue or silver. Selected protein species were excised from Coomassie Blue-stained gels and analyzed by mass spectrometry (MALDI-MS) at the Maiman Institute for Proteome Research (Tel-Aviv University). […]

In series [5] the test system is K562 cells. Description: Complement-mediated cell lysis (cytotoxicity) assay, Trypan blue staining. The settings on record: 10 micromolar cathepsin L inhibitor 30 minutes, anti-K562 1:40 or 1:50, NHS 60 minutes; versus DMSO; FIG. 8b. The class given is cell-based, human. How it is done:
as §2
Cell lysis and induced protection assays: Cytotoxicity assays were performed as previously described (Reiter, Y. and Fishelson, Z. 1992. Mol Immunol 29:771). Briefly, cells were incubated with diluted anti-K562 antiserum for 30 minutes at 4 degrees centigrade and then with complement (NHS, C7- or C8-deficient serum or HI-NHS, 50 percent) for 60 minutes at 37 degrees centigrade. Cell lysis was determined via Trypan blue staining. […] Statistical significance was analyzed by using the two-sided unpaired student's t-test.

A further series concerns solid tumors. The settings on record: cited from earlier work.

Where a SMILES comes first, the peptide text is derived from it. The star is where a group is joined. Cbz = O=C(OCc1ccccc1)*; CH2F = FC*

Regarding Streptolysin O [SLO], the “mortalin release in response to sublytic dose of pore-former” value in the series with mortalin [1] was “not released”.

In the case of polymyxin B [PMB], the “complement-induced release of metabolically-labeled proteins” value with K562 cells [2] is reported as “blocked”. For the same molecule, the “release of mortalin from complement-treated cells” value in the series with mortalin [1] is on record as “significantly reduced”. In addition, the “acquired resistance to lytic complement after sublytic complement” value with K562 cells [3] is reported as “did not acquire the resistance to lytic complement”.

For `O=C(N[C@@H](Cc1ccccc1)C(=O)N[C@@H](Cc1ccccc1)C(=O)CF)OCc1ccccc1` [cathepsin L inhibitor, Z-Phe-Phe-CH2F] (Cbz-Phe-Phe-CH2F), the “mortalin expression in K562 cells” value in the series on mortalin [4] was “elevation of mortalin expression”. Moreover, in the series on K562 cells [5], the “resistance of treated cells to lysis by antibody and complement” value is “enhanced resistance”.

For `CCn1c(=O)/c(=C2\Sc3ccccc3N2C)s/c1=C\c1cccc[n+]1CC.[Cl-]` [MKT-077], the “kidney toxicity in human patients” value in the series on solid tumors (Propper et al. 1999) was “irreversible kidney damage”. Further, the “effectiveness when used to treat cancer patients” value in the series with solid tumors (cancer patients) is recorded as “ineffective or suboptimally effective”.

Regarding `COc1cccc(-c2cc(=O)c3ccccc3o2)c1N` [PD98059], the “complement-induced release of metabolically-labeled proteins” value with K562 cells [2] is given as “blocked”. In the series with mortalin [1], the “release of mortalin from complement-treated cells” value was “significantly reduced”. In addition, the “acquired resistance to lytic complement after sublytic complement” value with K562 cells [3] is “did not acquire the resistance to lytic complement”.

Regarding mellitin, the “mortalin release in response to sublytic dose of pore-former” value in the series with mortalin [1] is listed as “not released”.
